Experimental data published in patent US12059404B2, “Mesembrenol and/or mesembranol for prophylaxis and treatment of patients suffering from epilepsy and associated diseases” (HG&H Pharmaceuticals (Pty) Ltd, priority 2017, dated 2024).

Columns and labels:
[1] = test system: AMPA mediated transmission; assay: In vitro hippocampus slice population spike with Fluorowillardine alone or together with alkaloids; assay type: cell-based, rat; conditions: isolated alkaloids; mean of 3 slices; FIG. 7
Protocol: Four important alkaloids contained in Zembrin® namely, mesembrenone, mesembrenol, mesembrine and mesembranol, were individually isolated. Similar tests to those described in example A were carried out on each of these isolated alkaloids, in the presence of two concentrations in the nanomolar range and the results are illustrated in FIGS. 5 to 7. In FIG. 5, the statistical significance of p<0.01 is marked by stars. In FIG. 6, the statistical significance of p<0.01 is marked by stars. In FIG. 7, mean values of 3 slices are depicted for each recording condition. Statistical significance between Fluorowillardine alone and the presence of the alkaloids is documented by stars. (**=p<0.05; ***=p<0.01).

[2] = test system: pyramidal cell activity in hippocampus slices; assay: In vitro hippocampus slice population spike in presence of isolated alkaloids; assay type: cell-based, rat; conditions: for attenuation of population spike amplitude, single shock stimuli / attenuation of population spike amplitude, theta burst stimuli: two concentrations in the nanomolar range; for attenuation of population spike amplitude, single shock stimuli: FIG. 5; for attenuation of population spike amplitude, theta burst stimuli: FIG. 6
Excerpt: Electric stimulation of Schaffer Collaterals leads to release of glutamate resulting in excitation of the postsynaptic pyramidal cells. The result of the electric stimulation can be recorded as so-called population spike (pop-spike). The amplitude of the resulting population spike represents the number of recruited pyramidal cells. The model of hippocampal pyramidal cell activity reflects the effects of physiological interventions by an increase or decrease of the amplitude of the population spike.
Hippocampus slices were obtained from 19 adult male Sprague-Dawlay rats (Charles River Wiga, Sulzbach, Germany). Rats were kept under a reversed day/night cycle for 2 weeks prior to the start of the experiments to allow recording of in vitro activity from slices during the active phase of their circadian rhythm (Dimpfel, W., Dalhoff, B., Hofmann, W., Schlüter, G. (1994) Electrically evoked potentials in the rat hippocampus slice in the presence of aminophylline alone and in combination with quinolones (European Neuropsychopharmacology, 4, 151-156).
Preparation of the slices was performed exactly as reported earlier (Dimpfel, W. and Hoffmann, J. A. (2011) Effects of rasagiline, its metabolite aminoindan and selegiline on glutamate receptor mediated signalling in the rat hippocampus slice in vitro (BMC Pharmacology, 11, 2)). Animals were exsanguinated under ether anaesthesia; the brain was removed in total and the hippocampal formation was isolated under microstereoscopic sight. The midsection of the hippocampus was fixed to the table of a vibrating microtome (Rhema Labortechnik, Hofheim, Germany) using a cyanoacrylate adhesive, submerged in chilled bicarbonate-buffered saline (artificial cerebrospinal fluid (ACSF): NaCl: 124 mM, KCl: 5 mM, CaCl2: 2 mM, MgSO4: 2 mM, NaHCO3: 26 mM, glucose: 10 mM, and cut into slices of 400μ thickness. All slices were pre-incubated for at least 1 h in Carbogen saturated ACSF (pH 7.4) in a pre-chamber before use (Dimpfel, W., Spüler, M., Dalhoff, A., Hoffmann, W., Schlüter, G. (1991) Hippocampal activity in the presence of quinolones and fenbufen in-vitro (Antimicrobial Agents and Chemotherapy, 35, 1142-1146).
During the experiment the slices were held and treated in a special superfusion chamber (List Electronics, Darmstadt, Germany) according to (Haas, H L., Schaerer, B., Vosmansky, M. (1979). A simple perfusion chamber for the study of nervous tissue slices in vitro (J Neurosci Methods, 1, 323-5), at 35° C. (Schiff, S J., Somjen, G G. (1985) The Effects of Temperature on Synaptic Transmission in Hippocampal Tissue Slices (Brain Research, 345, 279-284)). The preparation was superfused with ACSF at 180-230 ml/h. Electric stimulation (200 μA constant current pulses of 200 μs pulse width) of the Schaffer Collaterals within the […] area and recording of extracellular field potentials from the pyramidal cell layer of CA1 (Dimpfel, W., Spüler, M., Dalhoff, A., Hoffmann, W., Schlüter, G. (1991) Hippocampal activity in the presence of quinolones and fenbufen in-vitro (Antimicrobial Agents and Chemotherapy, 35, 1142-1146).
Measurements were performed at 10 min intervals to avoid potentiation mechanisms. Four stimulations—each 20 seconds apart—were averaged for each time point. After obtaining three stable responses to single stimuli (SS) long-term potentiation was induced by applying a theta burst type pattern (TBS). […]

Structure (SMILES)	interaction with AMPA mediated transmission (population spike with Fluorowillardine alone or with alkaloid) [1]	attenuation of population spike amplitude, single shock stimuli [2]	attenuation of population spike amplitude, theta burst stimuli [2]	concentration exerting a similar extent of attenuation of population spike amplitude ([2]; FIGS. 5 and 6)
COc1ccc(C23CCC(O)CC2N(C)CC3)cc1OC (stereo not shown) [mesembranol]	interact with AMPA mediated transmission	stronger attenuation	stronger attenuation	–
COc1ccc(C23C=CC(O)CC2N(C)CC3)cc1OC (stereo not shown) [mesembrenol]	interact with AMPA mediated transmission	stronger attenuation	stronger attenuation	–
COc1ccc([C@@]23CCC(=O)C[C@@H]2N(C)CC3)cc1OC [mesembrine, reference compound]	–	–	–	8.65 nM
